Values quoted from earlier work in US20070243260A1, “Treatment of Childhood Asthma” (priority 2004, published 2007).

Legend:
asthma [1] = conditions: single administration, metered-dose aerosol
asthma [2] = conditions: inhaled; up to 8 hours appears to be maximal

Which results are given for `C[N+]1(C)CCC(OC(=O)C(O)(c2ccccc2)C2CCCC2)C1` (centres unmarked) [glycopyrrolate]?
Period of bronchodilation (asthma [1]): 12 h; Duration of effective treatment (asthma [2]): up to 12 hours
